Read-outs that look alike come from different tables or passages of the source.
Tests used:
[1] = tested on: L-6 skeletal cancer cell line; assay: In vitro anticancer activity, MTT assay; assay type: cell-based; conditions: result in words
Description: (§1) In vitro biological activity studies were carried out at the pharmacology division, IICT, Hyderabad. The compounds were evaluated for in vitro anticancer activity against eight tumour cell lines derived from […] cancer types (breast, lung, liver, skeletal, kidney, prostrate, small intestine) as shown in Table 2. For each compound, dose response curves for each cell line were measured at a minimum of five concentrations at 10 fold dilutions. A protocol of 48 h continuous drug exposure was used and a MTT assay was used to estimate cell viability or growth. The concentration causing 50% inhibition (IC50) compared with the control was calculated. Some of the compounds have been evaluated for their in vitro cytotoxicity in eight cell lines from seven human cancer types. The results are expressed as IC50 determined relative to that of untreated control cells (Table-2).

[2] = tested on: L-6; assay: In vitro anticancer activity, MTT assay; assay type: cell-based; conditions: skeletal cancer cell line; MTT, 48 h continuous drug exposure
Description: as §1

[3] = tested on: COS-1 kidney cancer cell line; assay: In vitro anticancer activity, MTT assay; assay type: cell-based; conditions: for in-vitro cytotoxicity in kidney cancer cell line (COS-1): result in words
Description: as §1

[4] = In vitro anticancer activity, MTT assay; assay type: cell-based; conditions: kidney cancer cell line, MTT, 48 h continuous drug exposure
Description: as §1

[5] = tested on: IEC-6 small intestine cell line; assay: In vitro anticancer activity, MTT assay; assay type: cell-based; conditions: for in-vitro cytotoxicity in small intestine cancer cell line (IEC-6): result in words
Description: as §1

[6] = tested on: calf thymus DNA (CT-DNA); assay: Thermal denaturation studies with duplex-form calf thymus DNA; assay type: binding; conditions: [PND]/[DNA] molar ratio 1:5, CT-DNA 100 μM, ligand 20 μM, aqueous sodium phosphate buffer pH 7; for ΔTm after incubation at 37° C. for 0 hr: 0 hr at 37° C.; for ΔTm after incubation at 37° C. for 18 hrs: 18 hrs at 37° C.
Description: Compounds have been subjected to thermal denaturation studies with duplex-form calf thymus DNA (CT-DNA) using an modification of a reported procedure (Newman, M. S. Carcinog-compr. Surv. 1976, 1, 203; (b) Hecht, S. S.; Loy, M.; Hoffman, Carcinog-compr. Surv. 1976, 1, 325). Working solutions in aqueous buffer (10 mM NaH2PO4/Na2HPO4, 1 mM Na2EDTA, pH 7.00+0.01) containing CT-DNA (100 μm in phosphate) and the PND (pyrrolo naphtha diazepine) (20 μm) have been prepared by addition of concentrated PND (pyrrolo naphtha diazepine) solutions in DMSO to obtain a fixed [PND]/[DNA] molar ratio of 1:5. The DNA-PND (pyrrolo naphtha diazepine) solutions have been incubated at 37° C. for 0 and 18 h prior to analysis. Samples have been monitored at 260 nm using a Beckman DU-800 spectrophotometer fitted with high performance temperature controller, and heated at 1° C. min in the 40-110° C. range. DNA helix→coil transition temperatures (Tm) have been obtained from the maxima in the d(A260)/dT derivative plots. Drug-induced alterations in DNA melting behavior are given by: ΔTm=Tm(DNA+PND)−Tm(DNA alone), where the Tm value for the PND-free CT-DNA is 69.1±0.01.
The DNA binding activity for these novel substituted piperazine linked pyrrolo naphtho diazepine hybrids has been examined by thermal denaturation studies using calf thymus (CT) DNA. […] The data for some of the compounds are included in Table 1 for comparison.

[7] = tested on: HEPG2 liver cancer cell line; assay: In vitro anticancer activity, MTT assay; assay type: cell-based, human; conditions: for in-vitro cytotoxicity in liver cancer cell line (HEPG2): result in words
Description: as §1

[8] = tested on: PC-3 prostrate cancer cell line; assay: In vitro anticancer activity, MTT assay; assay type: cell-based, human; conditions: for IC50: prostrate cancer cell line, MTT, 48 h continuous drug exposure; for in-vitro cytotoxicity in prostrate cancer cell line (PC-3): result in words
Description: as §1

[9] = tested on: MCF7 breast cancer cell line; assay: In vitro anticancer activity, MTT assay; assay type: cell-based, human; conditions: for IC50: breast cancer cell line, MTT, 48 h continuous drug exposure; for in-vitro cytotoxicity in breast cancer cell line (MCF-7): result in words
Description: as §1

[10] = tested on: NCIH460 large cell lung cancer cell line; assay: In vitro anticancer activity, MTT assay; assay type: cell-based, human; conditions: for IC50: large cell lung cancer cell line, MTT, 48 h continuous drug exposure; for in-vitro cytotoxicity in large cell lung cancer cell line (NCIH460): result in words
Description: as §1

[11] = tested on: A549 lung cancer cell line; assay: In vitro anticancer activity, MTT assay; assay type: cell-based, human; conditions: for in-vitro cytotoxicity in lung cancer cell line (A549): result in words
Description: as §1

[12] = small intestine cell line, MTT, 48 h continuous drug exposure, read-out: IC50 IEC-6
[13] = liver cancer cell line, MTT, 48 h continuous drug exposure, read-out: IC50 HEPG2
[14] = lung cancer cell line, MTT, 48 h continuous drug exposure, read-out: IC50 A549

| Compound | in-vitro cytotoxicity in skeletal cancer cell line (L-6) [1] | IC50 [2] | in-vitro cytotoxicity in kidney cancer cell line (COS-1) [3] | in-vitro cytotoxicity in small intestine cancer cell line (IEC-6) [5] | ΔTm after incubation at 37° C. for 0 hr [6] | ΔTm after incubation at 37° C. for 18 hrs [6] | in-vitro cytotoxicity in liver cancer cell line (HEPG2) [7] | in-vitro cytotoxicity in prostrate cancer cell line (PC-3) [8] | in-vitro cytotoxicity in breast cancer cell line (MCF-7) [9] | in-vitro cytotoxicity in large cell lung cancer cell line (NCIH460) [10] | in-vitro cytotoxicity in lung cancer cell line (A549) [11] | IC50 ([4]; read-out: IC50 COS-1) | IC50 [5, 12] | IC50 [7, 13] | IC50 [8] | IC50 [9] | IC50 [10] | IC50 [11, 14] | also measured |
| --- | --- | --- | --- | --- | --- | --- | --- | --- | --- | --- | --- | --- | --- | --- | --- | --- | --- | --- | --- |
| COc1cc2cc3c(cc2cc1OCCN1CCN(c2ccccc2)CC1)C(=O)N1CCC[C@H]1C=N3 [19a, 9-Methoxy-8-[2-(4-phenylpiperazino)ethoxy]-(3aS)-1,2,3,13a-tetrahydro-5H-pyrrolo[2,1-c][1,4]naphthodiazepin-5-one] | exhibiting in-vitro cytotoxicity | 260 nM | exhibiting in-vitro cytotoxicity | exhibiting in-vitro cytotoxicity | 6.5 °C | 7.3 °C | exhibiting in-vitro cytotoxicity | exhibiting in-vitro cytotoxicity | exhibiting in-vitro cytotoxicity | exhibiting in-vitro cytotoxicity | exhibiting in-vitro cytotoxicity |  |  |  |  |  |  |  | IC50 ([3]; COS-1, range over the listed compounds, exposure period of at least 48 hrs, read-out: IC50 against kidney cancer cell lines): 800 to 4320 nM; IC50 ([4]; COS-1): 800 nM; IC50 ([5]; IEC-6, range over the listed compounds, exposure period of at least 48 hrs, read-out: IC50 against small intestine cancer cell lines): 10 to 5840 nM; IC50 ([5]; IEC-6, small intestine cell line, MTT, 48 h continuous drug exposure, read-out: IC50 IEC-6): 10 nM; IC50 ([7]; Homo sapiens, HepG2, liver cancer cell line, MTT, 48 h continuous drug exposure, read-out: IC50 HEPG2): 40 nM; IC50 ([7]; Homo sapiens, HepG2, range over the listed compounds, exposure period of at least 48 hrs, read-out: IC50 against liver cancer cell lines): 20 to 7320 nM; IC50 ([8]; Homo sapiens): 300 nM; IC50 ([9]; Homo sapiens, MCF7): 180 nM; IC50 ([10]; Homo sapiens, NCI-H460): 6 nM; IC50 ([11]; Homo sapiens, A549, lung cancer cell line, MTT, 48 h continuous drug exposure, read-out: IC50 A549): 9900 nM; IC50 ([11]; Homo sapiens, A549, range over the listed compounds, exposure period of at least 48 hrs, read-out: IC50 against lung cancer cell lines): 20 to 11900 nM |
| 9-Methoxy-8-(2-chloroethoxy)-(13aS)-1,2,3,13a-tetrahydro-5H-pyrrolo[2,1-c][1,4]naphthodiazepine-5-one [2a] | exhibiting in-vitro cytotoxicity | 2 nM | exhibiting in-vitro cytotoxicity | exhibiting in-vitro cytotoxicity | 7.1 °C | 9.5 °C | exhibiting in-vitro cytotoxicity | exhibiting in-vitro cytotoxicity | exhibiting in-vitro cytotoxicity | exhibiting in-vitro cytotoxicity | exhibiting in-vitro cytotoxicity | 910 nM | 10 nM | 20 nM | 20 nM | 2 nM | 20 nM | 110 nM |  |
| COc1cc2cc3c(cc2cc1OCCN1CCN(c2ncccn2)CC1)N=C[C@@H]1CCCN1C3=O [13a, 8-Methoxy-9-(2-[4-(2-pyrimidinyl)piperazino]ethoxy)-(13aS)-1,2,3,13a-tetrahydro-5H-pyrrolo[2,1-c][1,4]naphthodiazepin-5-one] | exhibiting in-vitro cytotoxicity | 610 nM | exhibiting in-vitro cytotoxicity | exhibiting in-vitro cytotoxicity | 5.0 °C | 6.5 °C | exhibiting in-vitro cytotoxicity | exhibiting in-vitro cytotoxicity | exhibiting in-vitro cytotoxicity | exhibiting in-vitro cytotoxicity | exhibiting in-vitro cytotoxicity | 1870 nM | 20 nM | 40 nM | 80 nM | 40 nM | 260 nM | 860 nM |  |
| COc1cc2cc3c(cc2cc1OCCN1CCN(c2ccccn2)CC1)N=C[C@@H]1CCCN1C3=O [12a, 8-Methoxy-9-(2-[4-(2-pyridyl)piperazino]ethoxy)-(13aS)-1,2,3,13a-tetrahydro-5H-pyrrolo[2,1-c][1,4]naphthodiazepin-5-one] | exhibiting in-vitro cytotoxicity | 860 nM | exhibiting in-vitro cytotoxicity | exhibiting in-vitro cytotoxicity | 5.8 °C | 7.1 °C | exhibiting in-vitro cytotoxicity | exhibiting in-vitro cytotoxicity | exhibiting in-vitro cytotoxicity | exhibiting in-vitro cytotoxicity | exhibiting in-vitro cytotoxicity | 4320 nM | 160 nM | 220 nM | 100 nM | 10 nM | 240 nM | 320 nM |  |

From patent publication US8759339B2, “Pyrrolo[2,1-c][1,4]naphthodiazepine linked piperazine compounds and a process for the preparation thereof” (Council of Scientific & Industrial Research, priority 2011, dated 2014)
